{"source": "patent US8741589B2", "about": "“Monitoring two dimensions of diabetes pathogenesis” (The Regents of the University of California, priority 2005, dated 2014)", "key": {"[1]": {"tested_on": "models of insulin resistance", "assay": "Deuterated water production from deuterated glucose in models of insulin resistance, response to insulin-sensitizing therapies", "assay_type": "in vivo", "conditions": "response to administration of insulin-sensitizing therapies in models of insulin resistance", "description": "Accordingly, the maintenance of normal absolute heavy water production in the face of insulin resistance was highly informative—“normal” heavy water production in this setting represented sufficiency (adequacy) of the pancreatic beta-cell response to the insulin resistance present. […] Full characterization of DM2 susceptibility and progression is thereby enabled through a simple, easily performed and widely usable test."}, "pre-diabetes": {"tested_on": "pre-diabetes", "conditions": "metformin therapy, background statement; cited from earlier work"}}, "data": [{"smiles": "CN(C)C(=N)N=C(N)N", "note": "[metformin]", "values": [{"measurement": "deuterated water production", "setting": "[1]", "result": "increased"}, {"measurement": "pancreatic insulin secretion", "setting": "pre-diabetes", "result": "improve pancreatic insulin secretion"}, {"measurement": "progression to DM2", "setting": "pre-diabetes", "result": "prevent progression to DM2"}]}]}
